Source: PubChem BioAssay AID2060329 (Molecular Pharmacology Branch, DTP, NCI, 2025)
Values joined by “and” are separate entries in the source; they are usually repeats but may differ in a detail not shown here. Equal values may be shown once.

Test system: MCF7 multi-cell spheroids with HUVEC/MSC, viability
Assay: Anticancer human tumor MCF7 cell line growth inhibition [IpAb];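 further: spheroids exposed to agents for seven days before readout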
Conditions: for viability, T/C: stronger effect = lower value
Text: Combinatorial screen of targeted agents with ipatasertib and abemaciclib in multi-cell type tumor spheroids
A high-throughput screen of multi-cell type tumor spheroids was designed to identify active combinations of targeted small molecules and ipatasertib or abemaciclib. Complex spheroids include a stromal component modeled by human endothelial cells (HUVEC) and fibroblasts modeled by human mesenchymal stem cells (MSCs). The concentration ranges selected for each drug and investigational agent were based upon clinically achievable concentrations if the clinical Cmax of the agent was known.
Compounds. The drugs and investigational agents: ipatasertib (NSC767898), abemaciclib(NSC768073), selumetinib (NSC741078), trametinib (758246), adavosertib (NSC754352), everolimus (NSC733504), sapanisertib (NSC764658), vemurafenib (NSC761431), venetoclax (NSC766270), copanlisib (NSC809693), apelisib (NSC765974), palbociblib (NSC758247), vemurafenib (NSC761431), dabrafenib (NSC764134), ravoxertinib (NSC781343), BMS-387032 (NSC767048), sotorasib (NSC818433), talazoparib (NSC767125) and afursertib (NSC778305), were obtained from the National Cancer Institute (NCI) Developmental Therapeutics Program Chemical Repository. The FDA-approved anticancer drug set is available from the NCI Developmental Therapeutics Program. […] The stock solutions were prepared in dimethyl sulfoxide (DMSO, Sigma-Aldrich, St. Louis, MO, cat. D2650) at 800-fold the tested concentration and stored at -70 degrees C prior to their use. All drugs and investigational agents were tested over a range starting from a high concentration at or near the clinical Cmax and decreasing in half-log increments. If the clinical Cmax for an agent had not been determined, the highest concentration tested was 10 microM.
NCI60 Cell Culture. NCI60 cell lines were obtained from the NCI Developmental Therapeutics Program Tumor Repository. For each lot of cells, the Repository performed Applied Biosystems AmpFLSTR Identifiler testing with PCR amplification to confirm consistency with the published Identifier STR profile for each cell line. Cells were kept in continuous culture for no more than 20 passages. The optimal seeding densities for each of the cell lines at each time point assessed were determined prior to performing the concentration response studies. Briefly, the NCI60 human tumor lines were grown as monolayers in RPMI 1640 medium supplemented with 10% FBS and 2 mmol/L L-glutamine.
An additional 9 lines were from the NCI60 cell line panel including MDA-MB-231 breast carcinoma, MDA-MB-468 breast carcinoma, MCF7 breast carcinoma, Hs578T breast carcinoma, MALME-3M melanoma, SK-MEL-2 melanoma, SK-OV-3 ovarian carcinoma, DU-145 prostate carcinoma, PC-3 prostate carcinoma, all cell lines along with major genetic alterations are listed on Table 2. Pooled donor human umbilical vein endothelial cells (HUVEC, Lonza, cat. CC-2519) and human mesenchymal stem cells (hMSC, Lonza, cat. PT-2501) were purchased from Lonza (Walkersville, MD).
PDMR cell lines were grown in complete medium (DC medium): Dulbecco's modified Eagle's medium (DMEM)/F12 supplemented with 5% fetal bovine serum (FBS), 2 mM L-glutamine, 100 U/mL penicillin and 100 µg/ml streptomycin, 0.4 µg/ml hydrocortisone, 10 ng/ml epidermal growth factor (EGF) recombinant human protein, 24 µg/mL adenine, and 0.1 mg/mL primocin. During culture from frozen stock vials, PDMR cells were cultured in the same medium containing 10 µM Y-27632 (see Table 3). The PDCs were cultured in complete DMEM/F12 media without 10 microM Y-27632 dihydrochloride for at least two passages prior to the screen. The pooled donor HUVEC and hMSC were cultured in endothelial cell growth medium 2 (PromoCell, Heidelberg, Germany, cat. C-22011) and mesenchymal stem cell growth medium 2 (PromoCell, cat. C-28009), respectively. For all experiments, HUVEC and hMSC were used at passages </=5.
[…]

[1] = curve of first compound, second compound 0.01 µM
[2] = curve of first compound, second compound 0.0316 µM
[3] = curve of first compound, second compound 0.1 µM
[4] = curve of first compound, second compound 0.316 µM
[5] = curve of first compound, second compound 1 µM
[6] = second compound 0.01 µM, first compound 0.0316 µM
[7] = second compound 0.01 µM, first compound 0.1 µM
[8] = second compound 0.01 µM, first compound 0.316 µM
[9] = second compound 0.01 µM, first compound 1 µM
[10] = second compound 0.0316 µM, first compound 0.0316 µM
[11] = second compound 0.0316 µM, first compound 0.1 µM
[12] = second compound 0.0316 µM, first compound 0.316 µM
[13] = second compound 0.0316 µM, first compound 1 µM
[14] = second compound 0.1 µM, first compound 0.0316 µM
[15] = second compound 0.1 µM, first compound 0.1 µM
[16] = second compound 0.1 µM, first compound 0.316 µM
[17] = second compound 0.1 µM, first compound 1 µM
[18] = second compound 0.316 µM, first compound 0.0316 µM
[19] = second compound 0.316 µM, first compound 0.1 µM
[20] = second compound 0.316 µM, first compound 0.316 µM
[21] = second compound 0.316 µM, first compound 1 µM
[22] = second compound 1 µM, first compound 0.0316 µM
[23] = second compound 1 µM, first compound 0.1 µM
[24] = second compound 1 µM, first compound 0.316 µM
[25] = second compound 1 µM, first compound 1 µM
[26] = second compound 0.01 µM, first compound 3.16 µM
[27] = second compound 0.01 µM, first compound 10 µM
[28] = second compound 0.0316 µM, first compound 3.16 µM
[29] = second compound 0.0316 µM, first compound 10 µM
[30] = second compound 0.1 µM, first compound 3.16 µM
[31] = second compound 0.1 µM, first compound 10 µM
[32] = second compound 0.316 µM, first compound 3.16 µM
[33] = second compound 0.316 µM, first compound 10 µM
[34] = second compound 1 µM, first compound 3.16 µM
[35] = second compound 1 µM, first compound 10 µM

Work on `COc1c(OCCCN2CCOCC2)ccc2c3n(c(=NC(=O)c4cnc(N)nc4)nc12)CCN3` + CCN1CCN(Cc2ccc(Nc3ncc(F)c(-c4cc(F)c5nc(C)n(C(C)C)c5c4)n3)nc2)CC1 yielded an IC50 [1] of 42.3 nM, an IC50 [2] of 29.8 nM and an IC50 [3] of 29.7 nM. It also gave an IC50 [4] of 42 nM, an IC50 [5] of 57.1 nM and a viability, T/C (second compound 0.01 µM, first compound 0.00316 µM) of 101%. For the same molecule, the viability, T/C (second compound 0.01 µM, first compound 0.01 µM) was 79.7%, the viability, T/C [6] was 61.3% and the viability, T/C [7] was 27.7%. The viability, T/C [8] was 9.2%, the viability, T/C [9] was 11.6% and the viability, T/C (second compound 0.0316 µM, first compound 0.00316 µM) was 91.2%. For the same molecule, the viability, T/C (second compound 0.0316 µM, first compound 0.01 µM) was 82.2%, the viability, T/C [10] was 46.5% and the viability, T/C [11] was 22.8%. It also gave a viability, T/C [12] of 7.69%, a viability, T/C [13] of 11.1% and a viability, T/C (second compound 0.1 µM, first compound 0.00316 µM) of 99.2%. The viability, T/C (second compound 0.1 µM, first compound 0.01 µM) was 78.8%, the viability, T/C [14] was 48.9% and the viability, T/C [15] was 23.4%. The viability, T/C [16] was 8.37%, the viability, T/C [17] was 9.47% and the viability, T/C (second compound 0.316 µM, first compound 0.00316 µM) was 93.1%. For the same molecule, the viability, T/C (second compound 0.316 µM, first compound 0.01 µM) was 73.5%, the viability, T/C [18] was 56.5% and the viability, T/C [19] was 36.5%. For the same molecule, the viability, T/C [20] was 17.9%, the viability, T/C [21] was 15% and the viability, T/C (second compound 1 µM, first compound 0.00316 µM) was 94%. It also gave a viability, T/C (second compound 1 µM, first compound 0.01 µM) of 66.7%, a viability, T/C [22] of 59% and a viability, T/C [23] of 41%. The viability, T/C [24] was 36.6% and the viability, T/C [25] was 18%.
For `C=CCn1c(=O)c2cnc(Nc3ccc(N4CCN(C)CC4)cc3)nc2n1-c1cccc(C(C)(C)O)n1` + CCN1CCN(Cc2ccc(Nc3ncc(F)c(-c4cc(F)c5nc(C)n(C(C)C)c5c4)n3)nc2)CC1, the IC50 [1] was 485 nM, the IC50 [2] was 561 nM and the IC50 [3] was 741 nM. The IC50 [4] was 965 nM, the IC50 [5] was 850 nM and the viability, T/C [6] was 94.5%. It also gave a viability, T/C [7] of 90.6%, a viability, T/C [8] of 60.1% and a viability, T/C [9] of 32.8%. The viability, T/C [26] was 25.6%, the viability, T/C [27] was 25.6% and the viability, T/C [10] was 91.4%. It also gave a viability, T/C [11] of 87.7%, a viability, T/C [12] of 63.4% and a viability, T/C [13] of 36.3%. For the same molecule, the viability, T/C [28] was 25.7%, the viability, T/C [29] was 23.7% and the viability, T/C [14] was 113%. The viability, T/C [15] was 83.5%, the viability, T/C [16] was 71% and the viability, T/C [17] was 42.6%. It also gave a viability, T/C [30] of 29%, a viability, T/C [31] of 36.7% and a viability, T/C [18] of 109%. The viability, T/C [19] was 109%, the viability, T/C [20] was 88% and the viability, T/C [21] was 49%. It also gave a viability, T/C [32] of 37.9%, a viability, T/C [33] of 36.8% and a viability, T/C [22] of 88%. For the same molecule, the viability, T/C [23] was 94%, the viability, T/C [24] was 87.1% and the viability, T/C [25] was 43.9%. It also gave a viability, T/C [34] of 41.6% and a viability, T/C [35] of 42.1%.
In the case of `Cn1ncc(Cl)c1-c1cc(C(=O)NC(CN)Cc2cccc(F)c2)sc1Cl` (configuration not stated), the viability, T/C (compound 0.0316 µM) is reported as 89.2% and 85.5%, the viability, T/C (compound 0.1 µM) is reported as 88.8% and 84.4% and the viability, T/C (compound 0.316 µM) is reported as 79.7% and 72.8%. The viability, T/C (compound 1 µM) was 57.6% and 50.1%, the viability, T/C (compound 3.16 µM) was 8.42% and 19.3% and the viability, T/C (compound 10 µM) was 0.22% and 0.25%. The IC50 (curve of compound) was 1170 nM and 998 nM.
In the case of `C=CC(=O)N1CCN(c2nc(=O)n(-c3c(C)ccnc3C(C)C)c3nc(-c4c(O)cccc4F)c(F)cc23)C(C)C1` (configuration not stated) + CCN1CCN(Cc2ccc(Nc3ncc(F)c(-c4cc(F)c5nc(C)n(C(C)C)c5c4)n3)nc2)CC1, the IC50 [1] is reported as greater than 10000 nM, the IC50 [2] is reported as greater than 10000 nM and the IC50 [3] is reported as greater than 10000 nM. It also gave an IC50 [4] greater than 10000 nM, an IC50 [5] of 6470 nM and a viability, T/C [6] of 97.6%. For the same molecule, the viability, T/C [7] was 95.6%, the viability, T/C [8] was 112% and the viability, T/C [9] was 98.4%. The viability, T/C [26] was 91.4%, the viability, T/C [27] was 58.8% and the viability, T/C [10] was 98.5%. The viability, T/C [11] was 94.7%, the viability, T/C [12] was 102% and the viability, T/C [13] was 110%. It also gave a viability, T/C [28] of 76.9%, a viability, T/C [29] of 48.3% and a viability, T/C [14] of 117%. The viability, T/C [15] was 107%, the viability, T/C [16] was 118% and the viability, T/C [17] was 101%. It also gave a viability, T/C [30] of 84.4%, a viability, T/C [31] of 59.4% and a viability, T/C [18] of 106%. For the same molecule, the viability, T/C [19] was 106%, the viability, T/C [20] was 111% and the viability, T/C [21] was 94.8%. It also gave a viability, T/C [32] of 70.7%, a viability, T/C [33] of 50.9% and a viability, T/C [22] of 100%. For the same molecule, the viability, T/C [23] was 101%, the viability, T/C [24] was 96.4% and the viability, T/C [25] was 78.9%. For the same molecule, the viability, T/C [34] was 62% and the viability, T/C [35] was 43.1%.
